What was measured:
NFF = assay: Cytotoxicity against human NFF cells after 72 hrs by Alamar Blue assay; assay type: cell-based
LNCaP [1] = assay: Cytotoxicity against human LNCAP cells after 72 hrs by Alamar Blue assay; assay type: functional, cell-based
LNCaP [2] = assay: Selectivity index, ratio of IC50 for human NFF cells to IC50 for human LNCaP cells; assay type: functional
[3] = Antiproliferative activity against human OVCAR3 cells; assay type: functional, cell-based; settings: OVCAR-3
MCF7 = assay: Antiproliferative activity against human MCF7 cells; assay type: functional, cell-based
Malme-3M = assay: Antiproliferative activity against human MALME-3M cells; assay type: functional, cell-based

## O=C1c2ccccc2-n2c1c1[nH]c3ccccc3c1cc2=O
NFF
  IC50: 32.1 µM
LNCaP [1]
  IC50: 22.9 µM
LNCaP [2]
  Ratio IC50: 1.4

## O=C(O)c1ccccc1-n1ccc2c([nH]c3ccccc32)c1=O
NFF
  IC50: 47.6 µM
LNCaP [1]
  IC50: 44.9 µM
LNCaP [2]
  Ratio IC50: 1.06

## COc1cccc2c1C(=O)c1c(O)c3c(c(O)c1C2=O)C[C@@](O)(C(=O)CO)C[C@@H]3O[C@H]1C[C@H](N)[C@H](O)[C@H](C)O1 [DOXORUBICIN]
NFF
  IC50: 0.126 µM
LNCaP [1]
  IC50: 0.0135 µM
LNCaP [2]
  Ratio IC50: 8.97

## O=C1c2ccccc2-[n+]2ccc3c([nH]c4ccccc43)c21 [FASCAPLYSIN]
NFF
  IC50: 0.339 µM
LNCaP [1]
  IC50: 0.54 µM
[3]
  EC50: 0.16 µg/mL
LNCaP [2]
  Ratio IC50: 0.63
MCF7
  EC50: 0.14 µg/mL
Malme-3M
  EC50: 0.03 µg/mL

## O=C(O)c1ccccc1-[n+]1ccc2c(c1)[nH]c1ccccc12.[Cl-] [RETICULATATE]
NFF
  IC50: 19.8 µM
LNCaP [1]
  IC50: 25.9 µM
LNCaP [2]
  Ratio IC50: 0.77

Source: ChEMBL document CHEMBL3352051, “Isolation, structure determination and cytotoxicity studies of tryptophan alkaloids from an Australian marine sponge Hyrtios sp” (Bioorg Med Chem Lett, 2014)
